Data reported in patent US20240024340A1, “Compositions and Methods For Treating Migraine” (priority 2020, published 2024).
Entries after “also recorded” stand apart in the source; their conditions may differ.

How the values were obtained:
BALB/c mice [1] = type: in vivo; settings: for effect on TST immobility compared to vehicle: Day 22 (FIG. 6B), imipramine 15 mg/kg, psilocybin 5 mg/kg Day 1, or both
Protocol: Imipraime (15 mg/kg) was given 1 hour before tail suspension testing on Day 22. […] For positive control, one group was given imipramine which is known to reduce immobility in TST in stressed mice.
Analysis: Simple comparisons between two groups were measured through inferential means.
Psilocybin loading dose was given 3-weeks prior to behavioral testing and imipramine was given 1-hour before testing on each testing day via Intraperitoneal injection (i.p, 5 ml/kg).

BALB/c mice [2] = assay: Elevated plus maze (EPM), anxiety-like behavior
BALB/c mice [3] = assay: Tail suspension test (TST), depression; psilocybin loading dose then psilocybin+CBD+6 MB maintenance

| Compound | effect on TST immobility compared to vehicle (BALB/c mice [1]) | effect of psilocybin loading dose on anti-depressive properties of imipramine (BALB/c mice [1]; psilocybin 5 mg/kg Day 1, imipramine 15 mg/kg one hour before TST on Day 22 or Day 29) | percentage of time spent in open space / open arms of the EPM (BALB/c mice [2]; Day 14, two weeks after loading dose of 5 mg/kg psilocybin, vs vehicle control, 5 mg/kg) | anxiety (symptoms) in mouse model (BALB/c mice [2]; loading dose psilocybin 5 mg/kg, alone or followed by low dose psilocybin, CBD and 6 mushroom blend) | immobile posture time in TST (BALB/c mice [3]; Day 15, psilocybin loading dose 5 mg/kg on Day 1) | immobility time in TST (BALB/c mice [3]; Day 22 (three weeks after 5 mg/kg loading dose of psilocybin), all groups receiving a loading dose) | depression (symptoms) in mouse model (BALB/c mice [3]; loading dose psilocybin 5 mg/kg, alone or followed by maintenance psilocybin, CBD and 6 mushroom blend) |
| --- | --- | --- | --- | --- | --- | --- | --- |
| CN(C)CCCN1c2ccccc2CCc2ccccc21 [imipramine] | anti-depressant effect | – | – | – | – | – | – |
| [3-(2-dimethylaminoethyl)-1H-indol-4-yl] dihydrogen phosphate [psilocybin] | anti-depressant effect | potentiate | significantly increased; also recorded: more time | decreased | decreased | significantly lower; also recorded: significant decrease | decreased |
